Laboratory results as given in article PMC7000521, “Hazard Characterization of Synthetic Cathinones Using Viability, Monoamine Reuptake, and Neuronal Activity Assays” (Frontiers in Neuroscience, 2020).
Like-named read-outs stand apart in the source and are kept apart here.

Tested on: rat primary cortical cultures
Experiment: MEA recordings of spontaneous neuronal network activity
Type: cell-based
Conditions: for IC50: Rattus norvegicus, value [CI]; for Increased potency to inhibit neuronal activity (MSR, MBR, and MNBR) compared to cathinones lacking the lengthened alkyl chain: acute and prolonged exposure
Description: Rat pups born of timed-pregnant Wistar rats (Envigo, Horst, Netherlands) were sacrificed on postnatal day 0–1 to prepare cortical cultures grown on MEA plates as described previously ([Zwartsen et al., 2018], [2019]). Briefly, a 50 μL drop of cell suspension was added to each well (1 × 10^5 cells/well) of a 48-well MEA plate (Axion BioSystems Inc., Atlanta, GA, United States, M768-GL1-30Pt200) coated with 0.1% polyethyleneimine (PEI). After 2 h, 450 μL dissection medium was added to each well. The day after the isolation (day in vitro 1; DIV1), 450 μL/well dissection medium was replaced with 450 μL/well glutamate medium. At DIV4, 450 μL/well glutamate medium was replaced with 450 μL/well FBS medium (for medium supplements see [Zwartsen et al., 2018], [2019]). Cultures were kept in FBS medium at 37°C, 5% CO2/95% air atmosphere until use at DIV9-10.
Microelectrode array recordings were performed as described in [Zwartsen et al. (2019)]. In short, neuronal activity was measured using a Maestro 768-channel amplifier (Axion BioSystems Inc., Atlanta, GA, United States). Baseline spontaneous neuronal activity was recorded for 30 min at 37°C, after which wells were exposed to selected synthetic cathinones under sterile conditions. Next, neuronal activity was determined during a 30 min “acute exposure” recording. […] Next, exposure medium was replaced with fresh FBS medium and the plate was incubated for 19 h at 37°C, until the 30 min “washout” recording, i.e., 24 h after the start of the exposure.
Effects of 3-MMC, 4-MMC, 4-MEC, pentedrone, 3-MMCinternet, and 4-MECinternet were tested at 1–1000 μM (final concentration). At the day of exposure, stocks and dilutions were freshly made in NB-A FBS medium (for medium supplements see [Zwartsen et al., 2019]). Data on methylone, α-PVP, and MDPV exposure have been published previously in [Zwartsen et al. (2019)]. For each experimental condition, primary cultures from two to three different isolations were used and tested in four to five plates (Nplates). The number of wells (nwells) represents the number of replicates per condition.
Microelectrode array data were analyzed as described in [Zwartsen et al. (2019)]. In short, parameters of interest after acute exposure were expressed as a percentage of the parameters prior to exposure to obtain a treatment ratio for each well (paired comparison; parameterexposure/parameterbaseline as % of control wells). The parameters after prolonged exposure and washout were also expressed as a percentage of the baseline parameters. Next, treatment ratios were grouped per parameter, condition, drug [e.g., mean spike rate (MSR) 10 μM 3-MMC] and exposure scenario (acute, prolonged, or washout).
Outliers (>mean ± 2×SD) for MSR (5.0%) were used to exclude wells on all parameters. Outliers for mean burst rate (MBR; 2.6%) and mean network burst rate (MNBR; 1.4%) were used to exclude wells on specific parameters (burst, network burst, and synchronicity parameters, or network burst and synchronicity parameters, respectively). Finally, the acute, prolonged, and washout control treatment ratios were set to 100% and treatment ratios of exposed wells were normalized to the average treatment ratio of medium control wells of the corresponding parameter and exposure scenario. Treatment ratios of exposed wells were averaged per parameter (e.g., MSR), condition (e.g., 100 μM), drug (e.g., methylone), and exposure scenario (e.g., acute exposure) and used for further statistical analyses [see [Zwartsen et al. (2019)] for more details on criteria, parameters, and exposure scenarios]. Neuronal activity (as % of control) is expressed as mean ± SEM of nwells from Nplates. As the spike, burst, and network burst rates were among the most sensitive parameters, these parameters are presented in the manuscript. Additional parameters are presented in Supplementary Figure 2.
Concentration–response curves were made for transporter, MEA, and cell viability assays. […]

[1] = 0.5 h, acute exposure 30 min, read-out: Neuronal activity IC50, mean burst rate (MBR), acute
[2] = 0.5 h, acute exposure 30 min, read-out: Neuronal activity IC50, mean network burst rate (MNBR), acute
[3] = 0.5 h, acute exposure 30 min, read-out: Neuronal activity IC50, mean spike rate (MSR), acute
[4] = 19 h washout, 24 h after start of exposure, read-out: Neuronal activity IC50, mean burst rate (MBR), recovery
[5] = 19 h washout, 24 h after start of exposure, read-out: Neuronal activity IC50, mean network burst rate (MNBR), recovery
[6] = 19 h washout, 24 h after start of exposure, read-out: Neuronal activity IC50, mean spike rate (MSR), recovery
[7] = prolonged exposure 4.5 h, read-out: Neuronal activity IC50, mean burst rate (MBR), prolonged
[8] = prolonged exposure 4.5 h, read-out: Neuronal activity IC50, mean network burst rate (MNBR), prolonged
[9] = prolonged exposure 4.5 h, read-out: Neuronal activity IC50, mean spike rate (MSR), prolonged

| SMILES | IC50 [1] [µM] | IC50 [2] [µM] | IC50 [3] [µM] | IC50 [4] [µM] | IC50 [5] [µM] | IC50 [6] [µM] | IC50 [7] [µM] | IC50 [8] [µM] | IC50 [9] [µM] | Increased potency to inhibit neuronal activity (MSR, MBR, and MNBR) compared to cathinones lacking the lengthened alkyl chain | Neuronal activity following washout (highest concentration (1000 μM), washout 24 h after start of exposure) |
| --- | --- | --- | --- | --- | --- | --- | --- | --- | --- | --- | --- |
| CCNC(C)C(=O)c1ccc(C)cc1 (centres unmarked) [4-MEC, 2-(ethylamino)-1-(4-methylphenyl) propan-1-one] | 74 | 68 | 73 | > 1000 | > 1000 | > 1000 |  |  |  |  |  |
| CNC(C)C(=O)c1ccc(C)cc1 (centres unmarked) [4-MMC, 2-(methylamino)-1-(4-methylphenyl) propan-1-one] | 118 | 120 | 101 | > 1000 | > 1000 | > 1000 | 147 | 167 | 114 |  |  |
| CCCC(C(=O)c1ccc2c(c1)OCO2)N1CCCC1 (centres unmarked) [MDPV, 1-(1,3-benzodioxol-5-yl)-2-pyrro lidin-1-ylpentan-1-one] |  |  |  |  |  |  |  |  |  | two to fourfold |  |
| CCCC(NC)C(=O)c1ccccc1 (centres unmarked) [Pentedrone, 2-(methylamino)-1-phenyl pentan-1-one] | 26 | 23 | 23 |  |  |  | 28 | 28 | 27 | two to fourfold | remained fully inhibited |
| CNC(C)C(=O)c1cccc(C)c1 (centres unmarked) [3-MMC, 2-(methylamino)-1-(3-methylphenyl) propan-1-one] | 79 | 67 | 65 | > 1000 | > 1000 |  |  |  |  |  |  |
